Test systems include UACC-62; NCI-H23; HCT-15; HT-29; COLO 205; MDA-N; HL-60; MOLT-4; RPMI-8226; U-251; MCF7; SNB-19; OVCAR-4; NCI-H522; PC-3; SK-MEL-5; BT-549; SK-MEL-2; OVCAR-5; CCRF-CEM.
Common to all, as to assay: inhibition of tumour cell growth, NCI panel, 48 h

Experimental findings from ChEMBL document CHEMBL1201862, “PubChem BioAssay data set” (2004) are described below.

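96-well plates; 48 h exposure; 5 concentrations. Endpoints by linear interpolation between flanking doses. Not reached: highest tested concentration assigned. Abbreviation: GI50, concentration required for 50% inhibition of growth.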 Active and inactive are the calls of the source. No stated cut-off is given here; in the data, active = GI50 up to about 1.1 µM and inactive = higher.

Turning to `CCC1c2[nH]c3ccccc3c2C[C@H]2C(=O)NC(Cc3c[nH]c4ccccc34)C(=O)N12` (stereo partly drawn), the GI50 is 15.5 µM (inactive) with UACC-62; 25.5 µM (inactive) in the assay with NCI-H23; 28.5 µM with HCT-15; 24.2 µM (inactive) in the assay on HT-29; 18.8 µM (inactive) in the assay on COLO 205; 24.2 µM (inactive) with MDA-N. Further, the GI50 is 19.2 µM (inactive) with HL-60; 15.9 µM (inactive) with MOLT-4; 19.4 µM (inactive) in the assay with RPMI-8226; 17.5 µM (inactive) with U-251; 27.3 µM (inactive) with MCF7; 37.5 µM (inactive) in the assay on SNB-19. Moreover, the GI50 in the assay on OVCAR-4 was 29.9 µM (inactive); in the assay on NCI-H522 it was 22.6 µM (inactive); in the assay on PC-3, 18.7 µM (inactive); with SK-MEL-5, 17.5 µM (inactive); in the assay with BT-549 it was 22.6 µM (inactive); with SK-MEL-2, 20 µM (inactive). Besides, the GI50 in the assay with OVCAR-5 is 25.8 µM (inactive).
Take `Oc1ccc(Cc2cc(Cc3ccc(O)cc3)cc(Cc3ccc(O)cc3)c2)cc1`: the GI50 was > 50 µM (inactive) with UACC-62; greater than 50 µM in the assay with HCT-15; > 50 µM (inactive) in the assay on HT-29; > 50 µM (inactive) in the assay with MDA-N; > 50 µM (inactive) in the assay with HL-60; > 50 µM (inactive) with MOLT-4. Moreover, the GI50 in the assay on RPMI-8226, in the assay on U-251, with MCF7, in the assay with SNB-19, with OVCAR-4 and in the assay with NCI-H522 was > 50 µM (inactive) each time. Further, the GI50 in the assay with PC-3, with BT-549, in the assay with SK-MEL-2 and in the assay on OVCAR-5 was > 50 µM (inactive) throughout.
As for `Cc1cc2c(cc1C(=O)c1ccc(N)cc1)OCO2`, the GI50 was 31 µM (inactive) in the assay on UACC-62; > 100 µM (inactive) in the assay with NCI-H23; 30.4 µM with HCT-15; 22.9 µM (inactive) with HT-29; 16 µM (inactive) in the assay with COLO 205; 12.4 µM (inactive) in the assay with MDA-N. Further, the GI50 in the assay on HL-60 is 49.9 µM (inactive); with MOLT-4, 40.1 µM (inactive); in the assay with RPMI-8226, 36.3 µM (inactive); in the assay with U-251, 24.9 µM (inactive); in the assay on CCRF-CEM, 39.1 µM (inactive); with MCF7, 20.1 µM (inactive). Also, the GI50 is 57.7 µM (inactive) with SNB-19; 19.1 µM (inactive) in the assay with NCI-H522; 43.6 µM (inactive) with PC-3; 20 µM (inactive) in the assay on SK-MEL-5; 48.8 µM (inactive) with BT-549; 23.9 µM (inactive) in the assay on SK-MEL-2. The GI50 with OVCAR-5 was 27 µM (inactive).
Consider `C/C1=C/C(C)CC(C)OC(=O)C(C)NC(=O)C(Cc2ccc(O)c(I)c2)N(C)C(=O)C(C)NC(=O)C(C)C1` (stereo not drawn), for which the GI50 in the assay with UACC-62 is < 0.0256 µM (active); with NCI-H23, 0.311 µM (active); with HCT-15, less than 0.0164 µM; in the assay on HT-29, < 0.01 µM (active); in the assay on COLO 205 it was < 0.01 µM (active); in the assay with MDA-N, < 0.01 µM (active). Moreover, the GI50 was < 0.01 µM (active) with HL-60; < 0.0187 µM (active) in the assay with MOLT-4; < 0.01 µM (active) in the assay with RPMI-8226; < 0.01 µM (active) in the assay with U-251; < 0.01 µM (active) in the assay with CCRF-CEM; < 0.0371 µM (active) in the assay on MCF7. Further, the GI50 in the assay on SNB-19 is 0.0667 µM (active); in the assay with OVCAR-4 it was < 0.01 µM (active); in the assay with NCI-H522 it was < 0.01 µM (active); with PC-3 it was < 0.01 µM (active); in the assay with SK-MEL-5, < 0.0133 µM (active); with BT-549, < 0.01 µM (active). The GI50 in the assay on OVCAR-5 is 7.23 µM (inactive).
Regarding `Cc1cc2nc(N)n[n+]([O-])c2cc1C`, the GI50 in the assay with UACC-62 was > 100 µM (inactive); in the assay with NCI-H23 it was > 100 µM (inactive); in the assay on HCT-15, greater than 100 µM; in the assay on HT-29 it was > 100 µM (inactive); in the assay with COLO 205 it was > 100 µM (inactive); with MDA-N, > 100 µM (inactive). The GI50 with HL-60, with MOLT-4, in the assay on RPMI-8226, in the assay on U-251, with CCRF-CEM and with MCF7 was > 100 µM (inactive) in each case. Moreover, the GI50 with SNB-19, in the assay with NCI-H522, with PC-3, in the assay on SK-MEL-5, in the assay with BT-549 and with SK-MEL-2 was > 100 µM (inactive) in each case. For the same compound, the GI50 with OVCAR-5 is > 100 µM (inactive).
Regarding `N#Cc1c(Cl)c(C=O)c(=O)n2c1[nH]c1ccccc12`, the GI50 in the assay with UACC-62 is 55.6 µM (inactive); in the assay on NCI-H23 it was 42.1 µM (inactive); with HCT-15 it was 57.5 µM; in the assay with HT-29 it was 36 µM (inactive); with COLO 205, 59.7 µM (inactive); in the assay on MDA-N, 43.7 µM (inactive). Further, the GI50 in the assay with HL-60 was 42.6 µM (inactive); with MOLT-4, 29 µM (inactive); with RPMI-8226, > 100 µM (inactive); in the assay with U-251, 67 µM (inactive); in the assay with CCRF-CEM, 40.4 µM (inactive); with MCF7 it was 33.3 µM (inactive). Also, the GI50 in the assay with SNB-19 is 63.8 µM (inactive); in the assay with OVCAR-4 it was 84.5 µM (inactive); in the assay with NCI-H522, 44 µM (inactive); in the assay with PC-3, 55.1 µM (inactive); in the assay on SK-MEL-5, 91.8 µM (inactive); in the assay on BT-549, 36.1 µM (inactive). In addition, in the assay with OVCAR-5, the GI50 was 28.4 µM (inactive).
`Cc1ccc([S+]([O-])CC(CF)OCn2cc(C)c(=O)[nH]c2=O)cc1` (stereo not drawn): the GI50 with UACC-62 was > 100 µM (inactive); in the assay with NCI-H23, > 100 µM (inactive); in the assay on HCT-15 it was greater than 100 µM; in the assay with COLO 205, > 100 µM (inactive); with MDA-N it was > 100 µM (inactive); in the assay on HL-60, > 100 µM (inactive). The GI50 with MOLT-4, in the assay with RPMI-8226, with U-251, with MCF7, in the assay with SNB-19 and in the assay on OVCAR-4 was > 100 µM (inactive) throughout. In addition, the GI50 with NCI-H522 is > 100 µM (inactive); in the assay with PC-3, > 100 µM (inactive); in the assay with SK-MEL-5, > 100 µM (inactive); in the assay with BT-549 it was 90.2 µM (inactive); in the assay on SK-MEL-2, > 100 µM (inactive); in the assay with OVCAR-5, > 100 µM (inactive).
Turning to `CC1=[N+](C)CCCN1C`, the GI50 in the assay with NCI-H23 is > 100 µM (inactive); in the assay with HCT-15, greater than 100 µM; in the assay on HT-29, > 100 µM (inactive); in the assay on COLO 205 it was > 100 µM (inactive); in the assay on MDA-N, > 100 µM (inactive); in the assay on HL-60, > 100 µM (inactive). For the same compound, the GI50 in the assay on MOLT-4, in the assay with RPMI-8226, in the assay on U-251, in the assay with CCRF-CEM, with MCF7 and in the assay on SNB-19 was > 100 µM (inactive) throughout. Further, the GI50 in the assay on OVCAR-4, in the assay with NCI-H522, in the assay on PC-3, in the assay on SK-MEL-5, in the assay on BT-549 and in the assay with SK-MEL-2 was > 100 µM (inactive) each time. In addition, the GI50 with OVCAR-5 is > 100 µM (inactive).
